Reference: ChEMBL document CHEMBL4725384, “Monoaryl derivatives as transthyretin fibril formation inhibitors: Design, synthesis, biological evaluation and structural analysis” (Bioorg Med Chem, 2020)
The source made the active and inactive calls. No cut-off for these calls is given here.

Key:
[1] = target: Transthyretin (Homo sapiens) (UniProt P02766); test: Stabilization of wild type human transthyretin expressed in Escherichia coli BL21(DE3) assessed as fibril formation at 7.2 uM preincubated for 30 mins with transthyretin followed by measuring after 72 hrs maintaining pH of 4.4 by UV-Visible spectrophotometer relative to control
[2] = target: Transthyretin (Homo sapiens) (UniProt P02766); test: Stabilization of wild type human transthyretin expressed in Escherichia coli BL21(DE3) assessed as decrease in TTR-amyloid beta fibril formation at 10 uM preincubated for 6 hrs with transthyretin followed by measuring after 96 hrs maintaining pH of 4.4 by thioflavin T binding assay relative to control

Structure (SMILES) | Activity [1] | inhibition [2]
O=C(O)c1cc(-c2ccc(F)cc2F)ccc1O | 9% | –
O=C(O)CCO/N=C/c1ccc(O)cc1 | 17% | Active
O=C(O)CCO/N=C/c1cc(O)cc(O)c1 | 39% | –
O=C(O)CCO/N=C/c1cc(Br)cc(Br)c1O | 16% | Active
O=C(O)CO/N=C/c1cccc(O)c1 | 100% | –
O=C(O)CO/N=C/c1ccc(OCC(=O)O)cc1 | 80% | inactive
O=C(O)CO/N=C/c1ccccc1O | 100% | –
O=C(O)CO/N=C/c1cc(Br)cc(Br)c1OCC(=O)O | 86% | inactive
O=C(O)CCO/N=C/c1ccccc1O | 38% | Active
O=C(O)CCO/N=C/c1ccc(O)cc1O | 38% | 68%
O=C(O[C@@H]1Cc2c(O)cc(O)cc2O[C@@H]1c1cc(O)c(O)c(O)c1)c1cc(O)c(O)c(O)c1 | – | 53%
O=C(O)CCO/N=C/c1cccc(O)c1 | 42% | Active
O=C(O)CO/N=C/c1cccc(OCC(=O)O)c1 | 100% | inactive
O=C(O)CO/N=C/c1ccccc1OCC(=O)O | 100% | inactive
O=C(O)CO/N=C/c1ccc(O)cc1 | 59% | –
O=C(O)CCO/N=C/c1ccc(O)c(O)c1 | 34% | –
O=C(O)CO/N=C/c1cc(Br)cc(Br)c1O | 35% | –
